Series [1] deals with Pseudomonas aeruginosa. Description: Antibacterial activity against Pseudomonas aeruginosa ATCC 27853 after 18 hrs by liquid growth inhibition assay. The class given is functional. Particulars: ATCC 27853, 18 h, read-out: MIC100.
The next series relates to Serratia marcescens. Put plainly: Antibacterial activity against Serratia marcescens ATCC 4112 after 18 hrs by liquid growth inhibition assay. To be noted: ATCC 4112, 18 h, read-out: MIC100. Format: functional.
Series [2] concerns Escherichia coli. Description: Antibacterial activity against Escherichia coli D31 after 18 hrs by liquid growth inhibition assay. Particulars: D31, 18 h, read-out: MIC100. The class given is functional.
The subject of series [3] is Enterobacter cloacae. Put plainly: Antibacterial activity against Enterobacter cloacae beta-12 after 18 hrs by liquid growth inhibition assay. Format: functional. To be noted: beta-12, 18 h, read-out: MIC100.
In the next series the test system is Micrococcus luteus. Description: Antibacterial activity against Micrococcus luteus A270 after 18 hrs by liquid growth inhibition assay. Format: functional. To be noted: A270, 18 h, read-out: MIC100.
For series [4], the system named is Staphylococcus aureus. Description: Antibacterial activity against Staphylococcus aureus ATCC 29213 after 18 hrs by liquid growth inhibition assay. Particulars: ATCC 29213, 18 h, read-out: MIC100. Format: functional.
Series [5] relates to Bacillus spizizenii. Description: Antibacterial activity against Bacillus subtilis ATCC 6633 after 18 hrs by liquid growth inhibition assay. To be noted: ATCC 6633, 18 h, read-out: MIC100. Format: functional.
For series [6], the system named is Staphylococcus epidermidis. Put plainly: Antibacterial activity against Staphylococcus epidermidis ATCC 12228 after 18 hrs by liquid growth inhibition assay. To be noted: ATCC 12228, 18 h, read-out: MIC100. The class given is functional.
The next series relates to Candida albicans. Description: Antifungal activity against Candida albicans MDM8 after 18 hrs by liquid growth inhibition assay. The class given is functional. To be noted: MDM8, 18 h, read-out: MIC100.
The test system of the next series is Candida tropicalis. Put plainly: Antifungal activity against Candida tropicalis IOC 4560 after 18 hrs by liquid growth inhibition assay. The class given is functional. Particulars: IOC 4560, 18 h, read-out: MIC100.
Series [7] concerns Candida parapsilosis. Description: Antifungal activity against Candida parapsilosis IOC 4564 after 18 hrs by liquid growth inhibition assay. To be noted: Lodderomyces parapsilosis, IOC 4564, 18 h; read-out: MIC100. Format: functional.
Series [8] relates to Aspergillus niger. Description: Antifungal activity against Aspergillus niger after 72 hrs by liquid growth inhibition assay. The class given is functional. Particulars: read-out: MIC100.
Series [9] concerns Cladosporium herbarum. Put plainly: Antifungal activity against Cladosporium herbarum after 72 hrs by liquid growth inhibition assay. To be noted: read-out: MIC100. Format: functional.
A further series concerns Cryptococcus neoformans. Description: Antifungal activity against Cryptococcus neoformans after 18 hrs by liquid growth inhibition assay. The class given is functional. To be noted: read-out: MIC100.
A further series concerns Erythrocyte. Put plainly: Hemolytic activity in human erythrocytes after 1 hr. Format: ADME, cell-based.
The subject of series [10] is Staphylococcus aureus. Put plainly: Antibacterial activity against Staphylococcus aureus ATCC 25923 measured every 4 hrs by broth micro-dilution method. The class given is functional. Particulars: ATCC 25923, 4 h. Background: Dilution methods test growth across graded concentrations, often in twofold steps.
Series [11] relates to Bacillus spizizenii. Description: Antibacterial activity against Bacillus subtilis ATCC 6633 measured every 4 hrs by broth micro-dilution method. The class given is functional. To be noted: ATCC 6633, 4 h.
For series [12], the system named is Escherichia coli. Description: Antibacterial activity against Escherichia coli ATCC 25922 measured every 4 hrs by broth micro-dilution method. To be noted: ATCC 25922, 4 h. The class given is functional.
The test system of series [13] is Pseudomonas aeruginosa. Put plainly: Antibacterial activity against Pseudomonas aeruginosa ATCC 9027 measured every 4 hrs by broth micro-dilution method. Format: functional. Particulars: ATCC 9027, 4 h.
Series [14] concerns Escherichia coli. Put plainly: Antibacterial activity against Escherichia coli SBS 363 after 18 hrs by liquid growth inhibition assay. The class given is functional. Particulars: SBS 363, 18 h, read-out: MIC100.
Series [15] relates to Escherichia coli. Description: Antibacterial activity against Escherichia coli SBS 363 up to 50 umol/L after 18 hrs by liquid growth inhibition assay. The class given is functional.
Series [16] concerns Enterobacter cloacae. Description: Antibacterial activity against Enterobacter cloacae beta-12 up to 50 umol/L after 18 hrs by liquid growth inhibition assay. The class given is functional.
Series [17] has as its system Bacillus spizizenii. Description: Antibacterial activity against Bacillus subtilis ATCC 6633 up to 50 umol/L after 18 hrs by liquid growth inhibition assay. Format: functional.
Series [18] relates to Candida parapsilosis. Put plainly: Antifungal activity against Candida parapsilosis IOC 4564 up to 50 umol/L after 18 hrs by liquid growth inhibition assay. The class given is functional.
The subject of series [19] is Aspergillus niger. Description: Antifungal activity against Aspergillus niger up to 50 umol/L after 72 hrs by liquid growth inhibition assay. Format: functional.
Series [20] concerns Cladosporium herbarum. Put plainly: Antifungal activity against Cladosporium herbarum up to 50 umol/L after 72 hrs by liquid growth inhibition assay. The class given is functional.

Active and inactive are the calls of the source. The calls are words filed in the database; no cut-off is given here.

Turning to H-FLGALWNVAKSVF-NH2, the MIC was determined as 0.78 µM with Pseudomonas aeruginosa [1]; 1.56 µM in the series on Serratia marcescens; 3.12 µM with Escherichia coli [2]; 25 µM in the series with Enterobacter cloacae [3]; 1.56 µM in the series with Micrococcus luteus; 3.12 µM with Staphylococcus aureus [4]. Further, the MIC with Bacillus spizizenii [5] amounted to 25 µM; in [6], 3.12 µM; with Candida albicans, 12.5 µM; in the series on Candida tropicalis, 6.25 µM; with Candida parapsilosis [7], 25 µM; in the series on Aspergillus niger [8], 25 µM. Besides, the MIC in the series with Cladosporium herbarum [9] came to 50 µM; in the series on Cryptococcus neoformans, 3.12 µM; with Staphylococcus aureus [10], 10 µM; with Bacillus spizizenii [11], 20 µM; in the series on Escherichia coli [12], 25 µM; with Pseudomonas aeruginosa [13] it was 10 µM. Further, the MHC with Erythrocyte amounted to 6.25 µmol/L.
For H-FLGALWEVAKSVF-NH2, the MIC worked out at 12.5 µM with Escherichia coli [14]; 0.78 µM in the series on Pseudomonas aeruginosa [1]; 1.56 µM in the series on Serratia marcescens; 12.5 µM in the series with Escherichia coli [2]; 25 µM with Enterobacter cloacae [3]; 1.56 µM with Micrococcus luteus. Moreover, the MIC with Staphylococcus aureus [4] was found to be 6.25 µM; in the series on Bacillus spizizenii [5] it was 12.5 µM; in series [6], 6.25 µM; in the series on Candida albicans, 12.5 µM; in the series with Candida tropicalis, 12.5 µM; with Candida parapsilosis [7], 50 µM. In addition, the MIC in the series on Aspergillus niger [8] stood at 25 µM; in the series on Cladosporium herbarum [9] it was 25 µM; with Cryptococcus neoformans it was 6.25 µM. The MHC in the series with Erythrocyte was found to be 1.6 µmol/L.
H-FLGALWNVAKKVF-NH2: the MIC in the series on Escherichia coli [14] stood at 1.56 µM; in the series on Pseudomonas aeruginosa [1], 0.39 µM; in the series on Serratia marcescens, 0.78 µM; in the series with Escherichia coli [2] it was 1.56 µM; in the series on Enterobacter cloacae [3] it was 6.25 µM; with Micrococcus luteus, 1.56 µM. Besides, the MIC in the series with Staphylococcus aureus [4] worked out at 1.56 µM; in the series with Bacillus spizizenii [5], 6.25 µM; in series [6], 1.56 µM; in the series on Candida albicans, 1.56 µM; in the series on Candida tropicalis, 3.12 µM; in the series on Candida parapsilosis [7] it was 6.25 µM. In addition, the values for the MIC in the series with Aspergillus niger [8], with Cladosporium herbarum [9] and in the series with Cryptococcus neoformans were 6.25 µM, 6.25 µM and 1.56 µM, respectively. Also, the MHC in the series on Erythrocyte was 1.6 µmol/L.
With H-FLGELWNVAKSVF-NH2, the MIC in the series with Pseudomonas aeruginosa [1] is 3.12 µM; with Serratia marcescens, 3.12 µM; in the series with Escherichia coli [2] it was 50 µM; with Micrococcus luteus, 25 µM; in the series on Staphylococcus aureus [4], 50 µM; in series [6], 50 µM. In addition, the MIC in the series on Candida albicans was determined as 50 µM; with Candida tropicalis it was 12.5 µM; in the series on Cryptococcus neoformans it was 12.5 µM. The substance also gave an MHC with Erythrocyte of 25 µmol/L. For the same substance, the “growth inhibition (GI)” value in the series with Escherichia coli [15], in the series with Enterobacter cloacae [16], with Bacillus spizizenii [17], in the series with Candida parapsilosis [18], with Aspergillus niger [19] and with Cladosporium herbarum [20] was “inactive” each time.
For the substance H-FLGELWNVWKSVF-NH2, the MIC in the series on Escherichia coli [14] was 12.5 µM; in the series with Pseudomonas aeruginosa [1], 3.12 µM; in the series with Serratia marcescens it was 3.12 µM; in the series on Escherichia coli [2] it was 6.25 µM; in the series on Enterobacter cloacae [3], 50 µM; in the series on Micrococcus luteus, 3.12 µM. The MIC in the series with Staphylococcus aureus [4] was found to be 12.5 µM; in the series with Bacillus spizizenii [5], 12.5 µM; in series [6] it was 6.25 µM; in the series on Candida albicans it was 6.25 µM; in the series with Candida tropicalis it was 12.5 µM; in the series with Cryptococcus neoformans, 6.25 µM. This substance displayed an MHC in the series with Erythrocyte of 1.6 µmol/L. The “growth inhibition (GI)” value in the series with Candida parapsilosis [18], in the series with Aspergillus niger [19] and with Cladosporium herbarum [20] was “inactive” throughout.
In the case of H-FLGALWKVAKSVF-NH2, the MIC worked out at 1.56 µM in the series on Escherichia coli [14]; 0.39 µM in the series with Pseudomonas aeruginosa [1]; 0.78 µM in the series with Serratia marcescens; 1.56 µM with Escherichia coli [2]; 6.25 µM in the series with Enterobacter cloacae [3]; 1.56 µM in the series on Micrococcus luteus. Besides, the MIC came to 1.56 µM in the series on Staphylococcus aureus [4]; 3.12 µM with Bacillus spizizenii [5]; 1.56 µM in series [6]; 1.56 µM in the series on Candida albicans; 1.56 µM in the series with Candida tropicalis; 1.56 µM in the series on Candida parapsilosis [7]. For the same substance, the MIC with Aspergillus niger [8] stood at 6.25 µM; in the series on Cladosporium herbarum [9] it was 12.5 µM; in the series on Cryptococcus neoformans, 1.56 µM. For the same substance, in the series with Erythrocyte, the MHC worked out at 1.6 µmol/L.
Consider H-FLGALWNVWKSVF-NH2, for which the MIC in the series on Escherichia coli [14] is 1.56 µM; in the series on Pseudomonas aeruginosa [1], 0.78 µM; in the series with Serratia marcescens, 1.56 µM; in the series on Escherichia coli [2], 1.56 µM; with Enterobacter cloacae [3] it was 6.25 µM; with Micrococcus luteus, 1.56 µM. Besides, the MIC in the series on Staphylococcus aureus [4] was 1.56 µM; in the series with Bacillus spizizenii [5], 6.25 µM; in series [6], 3.12 µM; in the series on Candida albicans it was 1.56 µM; with Candida tropicalis it was 6.25 µM; with Candida parapsilosis [7], 50 µM. In addition, the values for the MIC in the series on Aspergillus niger [8], with Cladosporium herbarum [9] and in the series on Cryptococcus neoformans were 50 µM, 50 µM and 3.12 µM, respectively. The MHC in the series on Erythrocyte worked out at 1.6 µmol/L.
Regarding H-FLKALWNVAKSVF-NH2, the MIC in the series on Escherichia coli [14] stood at 1.56 µM; with Pseudomonas aeruginosa [1] it was 0.78 µM; in the series on Serratia marcescens it was 1.56 µM; in the series with Escherichia coli [2], 1.56 µM; in the series on Enterobacter cloacae [3], 6.25 µM; in the series with Micrococcus luteus, 0.78 µM. The MIC came out at 3.12 µM with Staphylococcus aureus [4]; 6.25 µM in the series on Bacillus spizizenii [5]; 3.12 µM in series [6]; 3.12 µM in the series on Candida albicans; 3.12 µM with Candida tropicalis; 6.25 µM in the series on Candida parapsilosis [7]. Also, the figures for the MIC in the series with Aspergillus niger [8], with Cladosporium herbarum [9] and in the series with Cryptococcus neoformans were 12.5 µM, 25 µM and 3.12 µM, respectively. In addition, the MHC in the series on Erythrocyte was determined as 1.6 µmol/L.

The values above are taken from ChEMBL document CHEMBL4002571, “Novel designed VmCT1 analogs with increased antimicrobial activity” (Eur J Med Chem, 2017).
